In patent US20020119898A1, “Fabric cleaning system” (Unilever Home & Personal Care USA, Division of Conopco, Inc., priority 2000, published 2002):

Test: pKa of Brönsted acidic or basic functional groups of the fluorescer
Format: physicochemical
Settings: functional groups comprised in the fluorescer
Description: In addition, a preferred group of […] can be described by the presence and pKa of certain functional groups in the fluorescer. Therefore, a preferred group of hydrophilic fluorescers comprises fluorescers having at least one or more Brönsted acidic, basic functional groups or mixtures thereof with a pKa of 7 or less. A Brönsted acidic functional group is generally defined as a —AH group having a pKa of 7 or less for the equilibrium dissociation constant Ka=[—A][H′]/[—AH]. Likewise a Brönsted basic functional group is generally defined as a —B group, the conjugate acid of it (i.e. BH^+) having a pKa of 7 or less for the equilibrium dissociation constant Ka=[—B][H^+]/[—BH^+]. Examples of acidic functional groups include sulphonate, carboxylate, sulphate, phosphate, phosphonate and phosphinate. Examples of basic functional groups include amino groups, primary, secondary and tertiary amine groups.

In the case of O=S(=O)([O-])c1ccccc1C=Cc1ccc(-c2ccc(C=Cc3ccccc3S(=O)(=O)[O-])cc2)cc1.[Na+].[Na+] [TINOPAL™ CBS-X], the “pKa of functional groups” value is reported as less than 7.
